Measured values published in article PMC6905088 (Biochemical pharmacology, 2019).

Key:
CYP2D6 = CYP2D6 (Homo sapiens, UniProt P10635)
CYP1A2 = target: T1, CYP1A2 (Homo sapiens, UniProt P05177); assay: Recombinant isozyme kinetic assay; conditions: substrate desmethyl-terbinafine
T1 sequence (P05177 1-516): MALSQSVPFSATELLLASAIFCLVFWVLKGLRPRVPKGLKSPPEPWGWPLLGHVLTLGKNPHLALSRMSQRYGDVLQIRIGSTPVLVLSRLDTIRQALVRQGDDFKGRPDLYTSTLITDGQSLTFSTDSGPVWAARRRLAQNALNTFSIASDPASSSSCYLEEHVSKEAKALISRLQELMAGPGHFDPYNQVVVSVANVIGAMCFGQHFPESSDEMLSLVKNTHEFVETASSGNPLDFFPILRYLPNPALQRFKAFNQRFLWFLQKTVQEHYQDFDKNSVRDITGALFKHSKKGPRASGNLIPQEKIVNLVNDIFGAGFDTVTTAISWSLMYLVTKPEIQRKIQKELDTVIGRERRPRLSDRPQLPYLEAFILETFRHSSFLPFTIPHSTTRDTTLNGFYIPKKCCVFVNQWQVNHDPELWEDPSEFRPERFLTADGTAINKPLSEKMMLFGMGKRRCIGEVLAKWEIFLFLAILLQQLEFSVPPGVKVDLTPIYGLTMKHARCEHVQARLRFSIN

CYP2B6 = target: T2, CYP2B6 (Homo sapiens, UniProt P20813); assay: Recombinant isozyme kinetic assay; conditions: substrate desmethyl-terbinafine
T2 sequence (P20813 1-491): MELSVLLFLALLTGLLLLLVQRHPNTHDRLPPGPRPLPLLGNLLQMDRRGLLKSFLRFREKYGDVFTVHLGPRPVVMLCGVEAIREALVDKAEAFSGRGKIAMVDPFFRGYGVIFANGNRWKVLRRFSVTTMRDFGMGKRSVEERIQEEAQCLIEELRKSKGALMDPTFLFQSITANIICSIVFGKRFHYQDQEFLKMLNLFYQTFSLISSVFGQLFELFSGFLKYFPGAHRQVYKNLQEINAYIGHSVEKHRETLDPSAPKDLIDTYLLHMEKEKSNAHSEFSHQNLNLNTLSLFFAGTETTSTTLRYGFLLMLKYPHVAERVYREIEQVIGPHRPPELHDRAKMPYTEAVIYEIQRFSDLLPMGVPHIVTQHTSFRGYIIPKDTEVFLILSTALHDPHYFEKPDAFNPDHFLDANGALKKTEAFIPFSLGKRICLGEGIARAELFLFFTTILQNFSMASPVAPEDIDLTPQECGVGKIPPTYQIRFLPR

CYP2C8 = target: T3, CYP2C8 (Homo sapiens, UniProt P10632); assay: Recombinant isozyme kinetic assay; conditions: substrate desmethyl-terbinafine
T3 sequence (P10632 1-490): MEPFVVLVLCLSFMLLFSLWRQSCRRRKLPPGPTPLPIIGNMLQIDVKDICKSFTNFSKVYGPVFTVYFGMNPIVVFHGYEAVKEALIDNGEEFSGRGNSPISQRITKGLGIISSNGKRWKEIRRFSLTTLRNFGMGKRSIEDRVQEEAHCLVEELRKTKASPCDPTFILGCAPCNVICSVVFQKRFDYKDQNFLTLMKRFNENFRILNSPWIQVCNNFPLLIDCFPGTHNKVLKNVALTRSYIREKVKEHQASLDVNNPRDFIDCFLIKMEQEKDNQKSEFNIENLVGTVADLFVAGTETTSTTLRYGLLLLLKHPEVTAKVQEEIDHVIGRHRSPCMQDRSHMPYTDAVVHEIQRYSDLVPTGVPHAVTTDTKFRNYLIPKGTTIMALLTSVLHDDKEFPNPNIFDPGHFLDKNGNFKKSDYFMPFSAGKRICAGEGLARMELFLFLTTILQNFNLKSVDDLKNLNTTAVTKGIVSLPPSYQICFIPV

CYP2C9 = CYP2C9 (Homo sapiens, UniProt P11712); assay: Recombinant isozyme kinetic assay
[1] = normalized MS peak area, scaled x10^6
[2] = CYP2C9, Step 2.2b, substrate desmethyl-terbinafine

CYP2C9, sequence (P11712 whole entry): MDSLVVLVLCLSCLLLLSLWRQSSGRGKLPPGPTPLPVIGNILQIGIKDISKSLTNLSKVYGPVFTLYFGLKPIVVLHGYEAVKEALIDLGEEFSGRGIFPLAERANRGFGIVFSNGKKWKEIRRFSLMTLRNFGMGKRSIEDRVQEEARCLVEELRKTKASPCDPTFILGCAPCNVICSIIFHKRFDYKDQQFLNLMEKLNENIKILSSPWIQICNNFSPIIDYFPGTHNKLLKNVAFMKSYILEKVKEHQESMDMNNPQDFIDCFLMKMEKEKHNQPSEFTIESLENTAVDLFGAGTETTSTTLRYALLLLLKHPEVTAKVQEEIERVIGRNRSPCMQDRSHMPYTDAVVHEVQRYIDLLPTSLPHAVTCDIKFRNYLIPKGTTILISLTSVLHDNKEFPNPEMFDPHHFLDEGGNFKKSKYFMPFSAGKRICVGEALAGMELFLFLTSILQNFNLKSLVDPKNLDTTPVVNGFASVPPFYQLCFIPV
CYP2D6, sequence (P10635 whole entry): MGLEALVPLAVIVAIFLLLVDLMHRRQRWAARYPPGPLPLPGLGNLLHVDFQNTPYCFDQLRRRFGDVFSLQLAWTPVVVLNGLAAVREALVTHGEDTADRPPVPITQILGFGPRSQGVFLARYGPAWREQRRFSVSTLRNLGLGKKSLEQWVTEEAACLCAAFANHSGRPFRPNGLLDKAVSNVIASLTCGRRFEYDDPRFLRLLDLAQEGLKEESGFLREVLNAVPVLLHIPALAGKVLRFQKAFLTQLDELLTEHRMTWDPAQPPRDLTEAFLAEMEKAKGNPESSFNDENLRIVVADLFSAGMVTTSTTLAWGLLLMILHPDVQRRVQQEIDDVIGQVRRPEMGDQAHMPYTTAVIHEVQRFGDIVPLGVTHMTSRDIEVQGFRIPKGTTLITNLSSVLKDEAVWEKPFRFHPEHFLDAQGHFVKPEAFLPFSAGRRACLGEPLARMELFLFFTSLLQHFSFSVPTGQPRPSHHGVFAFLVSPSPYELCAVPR

With `CC(C)(C)C#C/C=C/CNCc1cccc2ccccc12.Cl` [desmethyl-terbinafine, N-desmethyl-terbinafine hydrochloride] the “desmethyl hydroxyterbinafine formation (kinetic constants)” value (CYP2D6) was “undetected”, the “desmethyl hydroxyterbinafine formation (kinetic constants)” value (CYP1A2) was “undetected” and the “desmethyl-terbinafine dihydrodiol formation (kinetic constants)” value (CYP1A2) was “undetected”. The “6,6-dimethyl-2-hepten-4-yn-1-amine formation (steady-state kinetic constants)” value (CYP2B6; Step 2.2b) was “undetected”, the “Vmax, desmethyl hydroxyterbinafine formation” value (CYP2B6; no saturation) was “linear” and the “Vmax, desmethyl-terbinafine dihydrodiol formation” value (CYP2B6; [1]) was 0.59 ± 0.13 μV*sec/min/nmol. For the same compound, the “Vmax, 1-naphthyl-methylamine formation” value (CYP2C8; Step 2.2a) was 85 ± 6.5 pmol/min/nmol protein, the “6,6-dimethyl-2-hepten-4-yn-1-amine formation (steady-state kinetic constants)” value (CYP2C8; Step 2.2b) was “undetected” and the “Vmax, 1-naphthaldehyde formation” value (CYP2C8; Step 2.2b) was 300 ± 28 pmol/min/nmol protein. For the same compound, the “desmethyl-terbinafine dihydrodiol formation (kinetic constants)” value (CYP2C8) was “undetected”, the “Vmax, desmethyl hydroxyterbinafine formation” value (CYP2C8; [1]) was 0.61 ± 0.04 μV*sec/min/nmol and the “Vmax, 1-naphthyl-methylamine formation” value (CYP2C9; CYP2C9, Step 2.2a, substrate desmethyl-terbinafine) was 330 ± 41 pmol/min/nmol protein. For the same compound, the “6,6-dimethyl-2-hepten-4-yn-1-amine formation (steady-state kinetic constants)” value (CYP2C9; [2]) was “undetected”, the “Vmax, 1-naphthaldehyde formation” value (CYP2C9; [2]) was 69 ± 4.4 pmol/min/nmol protein and the “desmethyl hydroxyterbinafine formation (kinetic constants)” value (CYP2C9; CYP2C9, substrate desmethyl-terbinafine) was “undetected”. For the same compound, the “Vmax, desmethyl-terbinafine dihydrodiol formation” value (CYP2C9; CYP2C9, substrate desmethyl-terbinafine, normalized MS peak area, scaled x10^6) was 2.0 ± 0.07 μV*sec/min/nmol and the “fold higher efficiency of dihydrodiol formation by CYP2C9 vs CYP2B6” value (CYP2C9; substrate desmethylterbinafine) was 50 fold.
